In ChEMBL document CHEMBL1649467, “Impact of human serum albumin on oritavancin in vitro activity against enterococci” (Antimicrob Agents Chemother, 2009):
In brackets after ≈: the same amount, converted by molar mass.

What was measured:
Enterococcus faecalis [1] = experiment: Antimicrobial activity against vancomycin-susceptible Enterococcus faecalis ATCC 29212 by broth dilution method in presence of 4% HSA; type: functional
Enterococcus faecalis [2] = experiment: Bactericidal activity against vancomycin-resistant Enterococcus faecalis ATCC 51299 expressing vanB gene assessed as change in bacterial count at 2 ug/ml by time-kill assay; type: functional
Enterococcus faecium [3] = experiment: Bactericidal activity against vancomycin-resistant Enterococcus faecium 1119175 expressing vanB gene assessed as change in bacterial count at 32 ug/ml by time-kill assay; type: functional
[4] = Free fraction in healthy human male at 200 mg, iv every 24 hrs by LC/MS/MS analysis; type: ADME, organism-based; conditions: in vivo
[5] = Cmax in healthy human male at 200 mg, iv every 24 hrs by LC/MS/MS analysis; type: ADME, organism-based; design: dose 200 mg, route intravenous; conditions: in vivo
Enterococcus faecalis [6] = experiment: Antimicrobial activity against vancomycin-resistant Enterococcus faecalis ATCC 51299 by broth dilution method in presence of 4% HSA; type: functional
Enterococcus faecalis [7] = experiment: Bactericidal activity against vancomycin-resistant Enterococcus faecalis 1058946 expressing vanA gene assessed as change in bacterial count at 32 ug/ml by time-kill assay; type: functional
Enterococcus faecalis [8] = experiment: Selectivity ratio of MIC for Enterococcus faecalis 1058946 in presence of 4% HSA to MIC for Enterococcus faecalis 1058946; type: functional
Enterococcus faecium [9] = experiment: Antimicrobial activity against vancomycin-resistant Enterococcus faecium ATCC 51559 by broth dilution method; type: functional
Enterococcus faecium [10] = experiment: Antimicrobial activity against vancomycin-resistant Enterococcus faecium 1059060 by broth dilution method in presence of 4% HSA; type: functional
Enterococcus faecium [11] = experiment: Selectivity ratio of MIC for Enterococcus faecium ATCC 51559 in presence of 4% HSA to MIC for Enterococcus faecium ATCC 51559; type: functional
Enterococcus faecium [12] = experiment: Bactericidal activity against vancomycin-resistant Enterococcus faecium ATCC 51559 expressing vanA gene assessed as change in bacterial count at 32 ug/ml by time-kill assay; type: functional
Enterococcus faecium [13] = experiment: Antimicrobial activity against vancomycin-resistant Enterococcus faecium 1059060 by broth dilution method; type: functional
Enterococcus faecalis [14] = experiment: Antimicrobial activity against vancomycin-resistant Enterococcus faecalis ATCC 51299 by broth dilution method; type: functional
Enterococcus faecalis [15] = experiment: Selectivity ratio of MIC for Enterococcus faecalis ATCC 51299 in presence of 4% HSA to MIC for Enterococcus faecalis 51299; type: functional
Enterococcus faecalis [16] = experiment: Antimicrobial activity against vancomycin-resistant Enterococcus faecalis 1058946 by broth dilution method in presence of 4% HSA; type: functional
Enterococcus faecalis [17] = experiment: Bactericidal activity against vancomycin-susceptible Enterococcus faecalis ATCC 29212 assessed as change in bacterial count at 32 ug/ml by time-kill assay; type: functional
Enterococcus faecalis [18] = experiment: Selectivity ratio of MIC for Enterococcus faecalis ATCC 29212 in presence of 4% HSA to MIC for Enterococcus faecalis ATCC 29212; type: functional
Enterococcus faecium [19] = experiment: Bactericidal activity against vancomycin-resistant Enterococcus faecium 1059060 expressing vanA gene assessed as change in bacterial count at 32 ug/ml by time-kill assay; type: functional
Enterococcus faecium [20] = experiment: Antimicrobial activity against vancomycin-resistant Enterococcus faecium 1119175 by broth dilution method in presence of 4% HSA; type: functional
Enterococcus faecium [21] = experiment: Bactericidal activity against vancomycin-resistant Enterococcus faecium ATCC 51559 expressing vanA gene assessed as change in bacterial count at 2 ug/ml by time-kill assay; type: functional
Enterococcus faecium [22] = experiment: Antimicrobial activity against vancomycin-resistant Enterococcus faecium ATCC 51559 by broth dilution method in presence of 4% HAS; type: functional
Enterococcus faecium [23] = experiment: Selectivity ratio of MIC for Enterococcus faecium 1059060 in presence of 4% HSA to MIC for Enterococcus faecium 1059060; type: functional
Enterococcus faecium [24] = experiment: Bactericidal activity against vancomycin-resistant Enterococcus faecium 1059060 expressing vanA gene assessed as change in bacterial count at 2 ug/ml by time-kill assay; type: functional
Enterococcus faecalis [25] = experiment: Antimicrobial activity against vancomycin-resistant Enterococcus faecalis 1058946 by broth dilution method; type: functional
Enterococcus faecalis [26] = experiment: Antimicrobial activity against vancomycin-susceptible Enterococcus faecalis ATCC 29212 by broth dilution method; type: functional
Enterococcus faecium [27] = experiment: Bactericidal activity against vancomycin-resistant Enterococcus faecium 1119175 expressing vanB gene assessed as change in bacterial count at 2 ug/ml by time-kill assay; type: functional
Enterococcus faecalis [28] = experiment: Bactericidal activity against vancomycin-resistant Enterococcus faecalis 1058946 expressing vanA gene assessed as change in bacterial count at 2 ug/ml by time-kill assay; type: functional
Enterococcus faecalis [29] = experiment: Bactericidal activity against vancomycin-susceptible Enterococcus faecalis ATCC 29212 assessed as change in bacterial count at 2 ug/ml by time-kill assay; type: functional
Enterococcus faecalis [30] = experiment: Bactericidal activity against vancomycin-resistant Enterococcus faecalis ATCC 51299 expressing vanB gene assessed as change in bacterial count at 32 ug/ml by time-kill assay; type: functional
Enterococcus faecium [31] = experiment: Antimicrobial activity against vancomycin-resistant Enterococcus faecium 1119175 by broth dilution method; type: functional
Enterococcus faecalis [32] = experiment: Bactericidal activity against vancomycin-resistant Enterococcus faecalis 1058946 expressing vanA gene assessed as change in bacterial count at 64 ug/ml by time-kill assay; type: functional
Enterococcus faecium [33] = experiment: Bactericidal activity against vancomycin-resistant Enterococcus faecium ATCC 51559 expressing vanA gene assessed as change in bacterial count at 16 ug/ml by time-kill assay; type: functional
Enterococcus faecium [34] = experiment: Bactericidal activity against vancomycin-resistant Enterococcus faecium 1059060 expressing vanA gene assessed as change in bacterial count at 64 ug/ml by time-kill assay; type: functional
[35] = Free fraction in healthy human male at 1000 mg, iv every 12 hrs by LC/MS/MS analysis; type: ADME, organism-based; conditions: in vivo
[36] = Cmax in healthy human male at 1000 mg, iv every 12 hrs by LC/MS/MS analysis; type: ADME, organism-based; design: dose 1000 mg, route intravenous; conditions: in vivo
Enterococcus faecalis [37] = experiment: Bactericidal activity against vancomycin-susceptible Enterococcus faecalis ATCC 29212 assessed as change in bacterial count at 16 ug/ml by time-kill assay; type: functional
Enterococcus faecium [38] = experiment: Bactericidal activity against vancomycin-resistant Enterococcus faecium 1059060 expressing vanA gene assessed as change in bacterial count at 16 ug/ml by time-kill assay; type: functional
Enterococcus faecium [39] = experiment: Bactericidal activity against vancomycin-resistant Enterococcus faecium ATCC 51559 expressing vanA gene assessed as change in bacterial count at 64 ug/ml by time-kill assay; type: functional
Enterococcus faecium [40] = experiment: Bactericidal activity against vancomycin-resistant Enterococcus faecium 1119175 expressing vanB gene assessed as change in bacterial count at 64 ug/ml by time-kill assay; type: functional
Enterococcus faecalis [41] = experiment: Bactericidal activity against vancomycin-susceptible Enterococcus faecalis ATCC 29212 assessed as change in bacterial count at 64 ug/ml by time-kill assay; type: functional
Enterococcus faecalis [42] = experiment: Bactericidal activity against vancomycin-resistant Enterococcus faecalis ATCC 51299 expressing vanB gene assessed as change in bacterial count at 16 ug/ml by time-kill assay; type: functional
Enterococcus faecium [43] = experiment: Bactericidal activity against vancomycin-resistant Enterococcus faecium 1119175 expressing vanB gene assessed as change in bacterial count at 16 ug/ml by time-kill assay; type: functional
Enterococcus faecalis [44] = experiment: Bactericidal activity against vancomycin-resistant Enterococcus faecalis ATCC 51299 expressing vanB gene assessed as change in bacterial count at 64 ug/ml by time-kill assay; type: functional
Enterococcus faecalis [45] = experiment: Bactericidal activity against vancomycin-resistant Enterococcus faecalis 1058946 expressing vanA gene assessed as change in bacterial count at 16 ug/ml by time-kill assay; type: functional

CN[C@H](CC(C)C)C(=O)N[C@H]1C(=O)N[C@@H](CC(N)=O)C(=O)N[C@H]2C(=O)N[C@H]3C(=O)N[C@H](C(=O)N[C@H](C(=O)O)c4cc(O)cc(O)c4-c4cc3ccc4O)[C@H](O[C@H]3C[C@](C)(N)[C@@H](O)[C@H](C)O3)c3ccc(c(Cl)c3)Oc3cc2cc(c3O[C@@H]2O[C@H](CO)[C@@H](O)[C@H](O)[C@H]2O[C@H]2C[C@](C)(NCc3ccc(-c4ccc(Cl)cc4)cc3)[C@@H](O)[C@H](C)O2)Oc2ccc(cc2Cl)[C@H]1O [ORITAVANCIN]
MIC (Enterococcus faecalis [1]): 0.016 mg/L
log10CFU/ml (Enterococcus faecalis [2]): -1.2
log10CFU/ml (Enterococcus faecium [3]): -1.4
fraction unbound at 24 h [4]: 0.12
Cmax [5]: 32 µg/mL
MIC (Enterococcus faecalis [6]): 0.06 mg/L
log10CFU/ml (Enterococcus faecalis [7]): -1.2
Ratio (Enterococcus faecalis [8]): 4
MIC (Enterococcus faecium [9]): 0.25 mg/L (≈ 0.139 µM)
MIC (Enterococcus faecium [10]): 4 mg/L
Ratio (Enterococcus faecium [11]): 2
log10CFU/ml (Enterococcus faecium [12]): -1.2
MIC (Enterococcus faecium [13]): 0.5 mg/L (≈ 0.279 µM)
MIC (Enterococcus faecalis [14]): 0.008 mg/L (≈ 0.00446 µM)
Ratio (Enterococcus faecalis [15]): 8
MIC (Enterococcus faecalis [16]): 2 mg/L
log10CFU/ml (Enterococcus faecalis [17]): -3.3
Ratio (Enterococcus faecalis [18]): 2
log10CFU/ml (Enterococcus faecium [19]): -0.85
MIC (Enterococcus faecium [20]): 0.01 mg/L
log10CFU/ml (Enterococcus faecium [21]): 1.1
MIC (Enterococcus faecium [22]): 0.5 mg/L
Ratio (Enterococcus faecium [23]): 8
log10CFU/ml (Enterococcus faecium [24]): 1
MIC (Enterococcus faecalis [25]): 0.5 mg/L (≈ 0.279 µM)
MIC (Enterococcus faecalis [26]): 0.008 mg/L (≈ 0.00446 µM)
log10CFU/ml (Enterococcus faecium [27]): 1.5
log10CFU/ml (Enterococcus faecalis [28]): 1.4
log10CFU/ml (Enterococcus faecalis [29]): -0.48
log10CFU/ml (Enterococcus faecalis [30]): -1.6
MIC (Enterococcus faecium [31]): 0.016 mg/L (≈ 0.00892 µM)

CN[C@H](CC(C)C)C(=O)N[C@H]1C(=O)N[C@@H](CC(N)=O)C(=O)N[C@H]2C(=O)N[C@H]3C(=O)N[C@H](C(=O)N[C@H](C(=O)O)c4cc(O)cc(O)c4-c4cc3ccc4O)[C@H](O)c3ccc(c(Cl)c3)Oc3cc2cc(c3O[C@@H]2O[C@H](CO)[C@@H](O)[C@H](O)[C@H]2O[C@H]2C[C@](C)(N)[C@H](O)[C@H](C)O2)Oc2ccc(cc2Cl)[C@H]1O [VANCOMYCIN]
log10CFU/ml (Enterococcus faecalis [32]): 2.3
log10CFU/ml (Enterococcus faecium [33]): 2.6
MIC (Enterococcus faecalis [1]): 2 mg/L
log10CFU/ml (Enterococcus faecium [34]): 2.2
MIC (Enterococcus faecalis [6]): 128 mg/L
fraction unbound at 12 h [35]: 0.54
Cmax [36]: 64 µg/mL
log10CFU/ml (Enterococcus faecalis [37]): -1.7
MIC (Enterococcus faecium [9]): > 128 mg/L
MIC (Enterococcus faecium [10]): > 128 mg/L
log10CFU/ml (Enterococcus faecium [38]): 2.3
log10CFU/ml (Enterococcus faecium [39]): 2.2
MIC (Enterococcus faecium [13]): > 128 mg/L
log10CFU/ml (Enterococcus faecium [40]): 1.2
log10CFU/ml (Enterococcus faecalis [41]): -0.76
MIC (Enterococcus faecalis [14]): 128 mg/L (≈ 88.3 µM)
MIC (Enterococcus faecalis [16]): > 128 mg/L
log10CFU/ml (Enterococcus faecalis [42]): 2.3
MIC (Enterococcus faecium [20]): > 128 mg/L
MIC (Enterococcus faecium [22]): > 128 mg/L
log10CFU/ml (Enterococcus faecium [43]): 1.1
MIC (Enterococcus faecalis [25]): > 128 mg/L
log10CFU/ml (Enterococcus faecalis [44]): 0.85
log10CFU/ml (Enterococcus faecalis [45]): 2.5
MIC (Enterococcus faecalis [26]): 2 mg/L (≈ 1.38 µM)
MIC (Enterococcus faecium [31]): > 128 mg/L
